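Interpolation was linear, between the two tested concentrations surrounding the appropriate level; five concentrations were tested over 48 hours in 96-well plates. GI50 marks 50% less growth. Definition used: TGI = concentration required for complete inhibition of growth.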
Legend:
Assay in all cases: NCI-60 cell line screen, 48 h
[1] = tested on: CAKI-1 renal
[2] = tested on: BT-549 breast
[3] = tested on: SR leukemia
[4] = tested on: UO-31 renal
[5] = tested on: NCI-H460 lung
[6] = tested on: NCI/ADR-RES ovarian
[7] = tested on: MCF7 breast
[8] = tested on: U251 CNS
[9] = tested on: DU-145 prostate
[10] = tested on: HOP-62 NSCLC

`O=c1cccc(C#CC#C[C@@H]2O[C@H]2CO)o1` gave a GI50 [1] of 1.1 µM, a TGI [1] of 2.71 µM and a GI50 [2] of 2 µM. The TGI [2] was 3.73 µM, the GI50 [3] was 0.621 µM and the TGI [3] was > 100 µM. The GI50 [4] was 1.06 µM, the TGI [4] was 2.88 µM and the GI50 [5] was 2.03 µM. The TGI [5] was 4.63 µM, the GI50 [6] was 1.24 µM and the TGI [6] was 4.53 µM. The GI50 [7] was 0.525 µM, the TGI [7] was 1.36 µM and the GI50 [8] was 1.46 µM. It also gave a TGI [8] of 3.07 µM, a GI50 [9] of 2.42 µM and a TGI [9] of 5.97 µM. For the same compound, the GI50 [10] was 1.55 µM and the TGI [10] was 3.03 µM.
For `COc1cccc2c1O/C(=C\c1ccc([N+](=O)[O-])s1)C2=O`, the GI50 [1] was > 100 µM, the TGI [1] was > 100 µM and the GI50 [2] was 1.68 µM. For the same compound, the TGI [2] was 3.27 µM, the GI50 [3] was 0.279 µM and the TGI [3] was 2.93 µM. The GI50 [4] was 1.08 µM, the TGI [4] was 3.9 µM and the GI50 [5] was 4.34 µM. For the same compound, the TGI [5] was > 100 µM, the GI50 [6] was 3.92 µM and the TGI [6] was > 100 µM. The GI50 [7] was 2.04 µM, the TGI [7] was > 100 µM and the GI50 [8] was 2.42 µM. The TGI [8] was > 20.3 µM, the GI50 [9] was > 23.9 µM and the TGI [9] was > 100 µM. For the same compound, the TGI [10] was > 100 µM.
In the case of `COc1ccc(CNc2c3ccccc3nc3ccccc23)cc1F`, the GI50 [1] is reported as 2.26 µM, the TGI [1] is reported as 8.35 µM and the GI50 [2] is reported as 4.88 µM. For the same compound, the TGI [2] was 18.3 µM, the GI50 [3] was 2.49 µM and the TGI [3] was 9.37 µM. The GI50 [4] was 1.49 µM, the TGI [4] was 6.15 µM and the GI50 [5] was 3.15 µM. The TGI [5] was 10.4 µM, the GI50 [6] was 2.58 µM and the TGI [6] was 10.3 µM. The GI50 [7] was 2.11 µM, the TGI [7] was 5.4 µM and the GI50 [8] was 3.82 µM. The TGI [8] was 15.5 µM, the GI50 [9] was 3.65 µM and the TGI [9] was 12.4 µM. For the same compound, the GI50 [10] was 4.2 µM and the TGI [10] was 20.5 µM.
With `CCCCCCn1c(-c2ccc(C(=O)O/N=C(\N)c3ccc4c(c3)OCO4)cc2)nc(-c2ccccc2)c1-c1ccccc1` the GI50 [1] was 1.39 µM, the TGI [1] was 2.86 µM and the GI50 [2] was 2.02 µM. The TGI [2] was 5.41 µM, the GI50 [3] was 0.28 µM and the TGI [3] was 1.43 µM. The GI50 [4] was 1.28 µM, the TGI [4] was 2.59 µM and the GI50 [5] was 2.08 µM. For the same compound, the TGI [5] was 4.57 µM, the GI50 [6] was 1.68 µM and the TGI [6] was 3.65 µM. It also gave a GI50 [7] of 1.58 µM, a TGI [7] of 3.5 µM and a GI50 [8] of 1.74 µM. It also gave a TGI [8] of 3.81 µM, a GI50 [9] of 1.33 µM and a TGI [9] of 2.66 µM. For the same compound, the GI50 [10] was 2.11 µM and the TGI [10] was 4.71 µM.
In the case of `C=CC12CCN(CC1)C(C(O)c1ccnc3ccc(OC)cc13)C2` (centres undefined), the GI50 [1] is reported as > 100 µM, the TGI [1] is reported as > 100 µM and the GI50 [2] is reported as > 100 µM. For the same compound, the TGI [2] was > 100 µM, the GI50 [3] was > 100 µM and the TGI [3] was > 100 µM. The GI50 [4] was 39.7 µM, the TGI [4] was > 100 µM and the GI50 [5] was > 100 µM. For the same compound, the TGI [5] was > 100 µM, the GI50 [6] was > 100 µM and the TGI [6] was > 100 µM. For the same compound, the GI50 [7] was 84.3 µM, the TGI [7] was > 100 µM and the GI50 [8] was > 100 µM. The TGI [8] was > 100 µM, the GI50 [9] was > 100 µM and the TGI [9] was > 100 µM. The GI50 [10] was > 100 µM and the TGI [10] was > 100 µM.
